Several values for one entry are separate records, joined by “and”; a condition that tells them apart may be missing. Equal values may be shown once. Toxic doses and inconclusive results are not listed. Rule as the data show it: active = T/C of 150% or more; inactive = T/C below 125%.
Tested on: L1210 leukemia ip in BDF1 mice, survival T/C
Assay: NCI In Vivo Anticancer Drug Screen. Data for tumor model L1210 Leukemia (intraperitoneal) in B6D2F1 (BDF1) mice
Settings: endpoint: mean survival time, higher = longer survival
Procedure, shortened: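 Ratio derived from survival: compound-dosed mice over vehicle-dosed mice, all bearing a transplantable tumor.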

[1] = dose: 100.0 mg/kg/injection, schedule: Q01DX009 (ip), vehicle: Klucel (hydroxypropylcellulose) (HPC)
[2] = dose: 100.0 mg/kg/injection, schedule: Q01DX001 (ip), vehicle: saline
[3] = dose: 200.0 mg/kg/injection, schedule: Q01DX001 (ip), vehicle: saline
[4] = dose: 400.0 mg/kg/injection, schedule: Q01DX001 (ip), vehicle: saline
[5] = dose: 25.0 mg/kg/injection, schedule: Q01DX009 (ip), vehicle: saline
[6] = dose: 50.0 mg/kg/injection, schedule: Q01DX009 (ip), vehicle: saline
[7] = dose: 100.0 mg/kg/injection, schedule: Q01DX009 (ip), vehicle: saline
[8] = dose: 100.0 mg/kg/injection, schedule: Q04DX003 (ip), vehicle: saline
[9] = dose: 200.0 mg/kg/injection, schedule: Q04DX003 (ip), vehicle: saline
[10] = dose: 400.0 mg/kg/injection, schedule: Q04DX003 (ip), vehicle: saline
[11] = dose: 200.0 mg/kg/injection, schedule: Q01DX009 (ip), vehicle: saline
[12] = dose: 75.0 mg/kg/injection, schedule: Q01DX001 (ip), vehicle: saline
[13] = dose: 50.0 mg/kg/injection, schedule: Q01DX001 (ip), vehicle: carboxymethylcellulose (CMC)
[14] = dose: 100.0 mg/kg/injection, schedule: Q01DX001 (ip), vehicle: carboxymethylcellulose (CMC)
[15] = dose: 200.0 mg/kg/injection, schedule: Q01DX001 (ip), vehicle: carboxymethylcellulose (CMC)
[16] = dose: 400.0 mg/kg/injection, schedule: Q01DX001 (ip), vehicle: carboxymethylcellulose (CMC)
[17] = dose: 200.0 mg/kg/injection, schedule: Q01DX009 (ip), vehicle: Klucel (hydroxypropylcellulose) (HPC)
[18] = dose: 100.0 mg/kg/injection, schedule: Q01DX009 (ip), vehicle: saline with Tween-80
[19] = dose: 100.0 mg/kg/injection, schedule: Q04DX003 (ip), vehicle: saline with Tween-80
[20] = dose: 200.0 mg/kg/injection, schedule: Q01DX009 (ip), vehicle: saline with Tween-80
[21] = dose: 200.0 mg/kg/injection, schedule: Q04DX003 (ip), vehicle: saline with Tween-80
[22] = dose: 400.0 mg/kg/injection, schedule: Q01DX009 (ip), vehicle: saline with Tween-80
[23] = dose: 100.0 mg/kg/injection, schedule: Q04DX002 (ip), vehicle: saline with Tween-80

Measured: T/C

O=C(C[n+]1cc2ccccc2c2ccccc21)c1ccccc1
inactive: [1] 95 % of control

O=C(/C=C/c1ccccc1)c1ccc(N=Cc2ccccc2)cc1
inactive: dose: 50.0 mg/kg/injection, schedule: Q01DX001 (ip), vehicle: saline 94 % of control | [2] 94 % of control | [3] 90 % of control | [4] 105 % of control

O=COCC(O)COC=O
inactive: dose: 12.5 mg/kg/injection, schedule: Q01DX009 (ip), vehicle: saline 101 % of control | [5] 104 % of control | [6] 87 % of control | [7] 101 % of control | [8] 95 % of control | [9] 90 % of control | [10] 97 % of control

O=C(CC(=O)C(F)(F)F)c1csc2ccccc12
inactive: dose: 15.0 mg/kg/injection, schedule: Q01DX015 (ip), vehicle: other 108 % of control | [5] 92 % of control | dose: 25.0 mg/kg/injection, schedule: Q04DX003 (ip), vehicle: acetone 97 % of control | dose: 30.0 mg/kg/injection, schedule: Q01DX015 (ip), vehicle: other 94 % of control | [6] 92 % of control | dose: 50.0 mg/kg/injection, schedule: Q04DX003 (ip), vehicle: acetone 100 % of control | dose: 60.0 mg/kg/injection, schedule: Q01DX015 (ip), vehicle: other 97 % of control | [2] 95 % of control | dose: 100.0 mg/kg/injection, schedule: Q04DX003 (ip), vehicle: acetone 97 % of control | dose: 120.0 mg/kg/injection, schedule: Q01DX015 (ip), vehicle: other 94 % of control

CCOC(=O)Cc1cc(Cl)c2ccc(Cl)cc2n1
inactive: [6] 96 % of control | [7] 95 % of control | [8] 101 % of control | [11] 90 % of control | [9] 95 % of control | [10] 92 % of control

CCCCNC1=C(NC(=O)C(Cl)Cl)C(=O)c2ccccc2C1=O
inactive: dose: 2.5 mg/kg/injection, schedule: Q01DX009 (ip), vehicle: saline with Tween-80 103 % of control | dose: 5.0 mg/kg/injection, schedule: Q01DX009 (ip), vehicle: saline with Tween-80 101 % of control | dose: 5.0 mg/kg/injection, schedule: Q04DX003 (ip), vehicle: saline with Tween-80 100 % of control | dose: 10.0 mg/kg/injection, schedule: Q01DX009 (ip), vehicle: saline with Tween-80 98 % of control | dose: 10.0 mg/kg/injection, schedule: Q04DX003 (ip), vehicle: saline with Tween-80 97 % of control

COc1ccc(CC2NCCc3cc(OC)c(OC)cc32)cc1OC (stereo not drawn)
inactive: [12] 101 % of control

CC(=O)Nc1ccc(S(=O)(=O)NN)cc1
inactive: [13] 106 % of control | [14] 103 % of control | [15] 92 % of control | [16] 92 % of control

c1ccc(-c2nc3ccccc3s2)cc1
inactive: dose: 100.0 mg/kg/injection, schedule: Q04DX002 (ip), vehicle: gum acacia 101 % of control | dose: 200.0 mg/kg/injection, schedule: Q04DX002 (ip), vehicle: gum acacia 111 % of control | dose: 400.0 mg/kg/injection, schedule: Q04DX002 (ip), vehicle: gum acacia 86 % of control

Cc1ncc(CCl)c2c1OC(C)(C)OC2
inactive: [12] 100 % of control | [2] 100 % of control | dose: 150.0 mg/kg/injection, schedule: Q01DX001 (ip), vehicle: saline 101 % of control | [3] 94 % of control

COc1ccccc1CCN
inactive: dose: 100.0 mg/kg/injection, schedule: Q04DX002 (ip), vehicle: saline 112 % of control | dose: 200.0 mg/kg/injection, schedule: Q04DX002 (ip), vehicle: saline 93 % of control and 108 % of control

Cc1ccc(C(C)(N=[N+]=[N-])c2ccccc2)cc1C (stereo not drawn)
inactive: [2] 93 % of control | [3] 96 % of control | [4] 109 % of control

OC1(c2ccccc2)C=C(c2ccccc2)C=C(c2ccccc2)O1 (stereo not drawn)
inactive: dose: 50.0 mg/kg/injection, schedule: Q01DX001 (ip), vehicle: Klucel (hydroxypropylcellulose) (HPC) 87 % of control | dose: 100.0 mg/kg/injection, schedule: Q01DX001 (ip), vehicle: Klucel (hydroxypropylcellulose) (HPC) 92 % of control | dose: 200.0 mg/kg/injection, schedule: Q01DX001 (ip), vehicle: Klucel (hydroxypropylcellulose) (HPC) 94 % of control

COc1ccc(C2CCC(=O)CC2(O)C(=O)O)cc1 (stereo not drawn)
inactive: [1] 91 % of control | dose: 100.0 mg/kg/injection, schedule: Q04DX003 (ip), vehicle: Klucel (hydroxypropylcellulose) (HPC) 98 % of control | [17] 88 % of control | dose: 200.0 mg/kg/injection, schedule: Q04DX003 (ip), vehicle: Klucel (hydroxypropylcellulose) (HPC) 102 % of control | dose: 400.0 mg/kg/injection, schedule: Q01DX009 (ip), vehicle: Klucel (hydroxypropylcellulose) (HPC) 98 % of control | dose: 400.0 mg/kg/injection, schedule: Q04DX003 (ip), vehicle: Klucel (hydroxypropylcellulose) (HPC) 100 % of control

CC(C)CCOC(=O)C(Br)c1ccccc1 (stereo not drawn)
inactive: [18] 95 % of control | [19] 104 % of control | [20] 88 % of control | [21] 99 % of control | [22] 88 % of control | dose: 400.0 mg/kg/injection, schedule: Q04DX003 (ip), vehicle: saline with Tween-80 95 % of control

CCOC(=O)C1(C)OCCO1
inactive: [7] 101 % of control | [8] 103 % of control | [11] 100 % of control | [9] 96 % of control | dose: 400.0 mg/kg/injection, schedule: Q01DX009 (ip), vehicle: saline 95 % of control | [10] 99 % of control

NCc1cc([N+](=O)[O-])ccc1Cl
inactive: [6] 101 % of control | [7] 95 % of control | [19] 92 % of control | [11] 97 % of control | [21] 103 % of control

N#CCCSP(=S)(Oc1ccccc1)Oc1ccccc1
inactive: dose: 100.0 mg/kg/injection, schedule: Q01DX009 (ip), vehicle: other 100 % of control | dose: 200.0 mg/kg/injection, schedule: Q01DX009 (ip), vehicle: other 100 % of control | dose: 400.0 mg/kg/injection, schedule: Q01DX009 (ip), vehicle: other 94 % of control

NC(=O)N/N=C/c1ccc[n+]([O-])c1
inactive: dose: 37.5 mg/kg/injection, schedule: Q04DX002 (ip), vehicle: saline with Tween-80 102 % of control | dose: 75.0 mg/kg/injection, schedule: Q04DX002 (ip), vehicle: saline with Tween-80 108 % of control | [23] 86 % of control | dose: 150.0 mg/kg/injection, schedule: Q04DX002 (ip), vehicle: saline with Tween-80 97 % of control | dose: 400.0 mg/kg/injection, schedule: Q04DX002 (ip), vehicle: saline with Tween-80 96 % of control

CC(=O)Nc1ccc2c(c1)Cc1cc(NC=O)ccc1-2
inactive: [13] 101 % of control | [14] 95 % of control | [18] 102 % of control | [8] 97 % of control | [15] 101 % of control | [20] 95 % of control | [9] 93 % of control | [16] 101 % of control | [22] 98 % of control | [10] 95 % of control

O=C(Nc1ccc([N+](=O)[O-])cc1Cl)c1cc(Cl)ccc1O
inactive: dose: 50.0 mg/kg/injection, schedule: Q01DX009 (ip), vehicle: Klucel (hydroxypropylcellulose) (HPC) 101 % of control | [1] 104 % of control | dose: 100.0 mg/kg/injection, schedule: Q04DX002 (ip), vehicle: Klucel (hydroxypropylcellulose) (HPC) 91 % of control | [17] 101 % of control | dose: 200.0 mg/kg/injection, schedule: Q04DX002 (ip), vehicle: Klucel (hydroxypropylcellulose) (HPC) 94 % of control

Cn1c2c(c(=O)n(C)c1=O)C(=Nc1ccccc1N)C(=O)N2
inactive: [2] 101 % of control | [3] 101 % of control | [4] 90 % of control

Nc1ncnc(N)c1NC(=O)c1cccc(C(=O)c2ccccc2)c1
inactive: [8] 101 % of control | [9] 100 % of control | [10] 96 % of control

CC(C)N(CCNCC(Cc1ccccc1)c1ccccc1)C(C)C (stereo not drawn)
inactive: dose: 25.0 mg/kg/injection, schedule: Q04DX002 (ip), vehicle: saline with Tween-80 99 % of control | dose: 50.0 mg/kg/injection, schedule: Q04DX002 (ip), vehicle: saline with Tween-80 96 % of control | [23] 102 % of control

From PubChem BioAssay AID248 (DTP/NCI, 2004)
